From paper PMC5641330, “Prediction of a Therapeutic Dose for Buagafuran, a Potent Anxiolytic Agent by Physiologically Based Pharmacokinetic/Pharmacodynamic Modeling Starting from Pharmacokinetics in Rats and Human” (Frontiers in Pharmacology, 2017)

Experiments:
Caco-2 cells = assay: Caco-2 transport study; type: in vitro ADME; set-up: Caco-2 Papp: unit not given here; details: PBPK input parameter; 50 μM
Procedure: (§1) Caco-2 Cells from passage 38 were applied to the transport experiments. Cells were seeded on polycarbonate filters (12 mm diameter, pore size 0.4 μm). The cell monolayers were used 21 days post seeding. Buagafuran was dissolved in DMSO. It was further diluted to 50 μM with HBSS. The final buagafuran concentration was 50 μM. For absorptive (AP→BL) permeability test, drug solution (0.4 mL) was added to the apical chamber. For secretive (BL→AP) permeability experiments, drug solution (0.6 mL) was added to the basolateral chamber, then 50 μL samples (n = 3) were withdrawn from receiver chamber at specified times and 50 μL fresh buffer was added in the receiver chamber. The experiments were carried out in triplicate at 4 time points.
(§2) Transport of buagafuran was tested using a linear model. The regression line was validated by inspection with naked eye and the value of correlation coefficient was R > 0.9. The apparent permeability coefficient (Papp) was calculated by the formula Papp = (ΔQ/Δt)/ACo, where ΔQ/Δt is the transport rate (nmol/s), which remained approximately constant in time, A is the well membrane area (0.6 cm^2), and Co is the initial concentration of buagafuran (μM). The efflux rate (ER) was the ratio of the Papp from the basolateral to apical cells versus the Papp from the apical to basolateral cells. Transport of the tested drug is linear over the incubation times of 30–120 min.

Caco-2 transport study = type: in vitro ADME; set-up: Caco-2 Papp: unit not given here; details: human, Caco-2 monolayer
Procedure: as §1, §2

[1] = Clearance prediction from incubation with rat liver microsomes; type: in vitro ADME
Procedure: Drug disappearance t1/2 value measurements in rat and human microsomes were used to determine the in vitro apparent intrinsic clearance value (CLintapp) of buagafuran acquired using Then CLintapp was converted to in vivo intrinsic clearance (CLint).
Rat or human liver microsomal incubation (0.5 mg/mL) was carried out at 37°C in a mixture of 0.5 mL in 0.05 M Tris–HCl buffer (pH 7.4). Buagafuran (2 μM) was added to the incubation system. The addition of NADPH (1 mM) initiated the reaction, then the reaction was incubated for 0, 10, 20, 30, 45, and 60 min. The equal volume of acetonitrile containing the IS (10 ng/mL) was added to stop the reaction. The mixtures were centrifuged at 16000 g for 5 min and the supernatants were determined using LC-MS/MS method.
The natural log (In) of buagafuran concentration versus time was plotted and the slope of the best fit line of was determined by the data (k). This was converted into in vitro t1/2 where t1/2 = In 2/k. CLintapp was calculated by the following equation: […]
Where M is the microsomal protein concentration in the incubation. CLint by liver was calculated from equation 2:
(2) CLint=CLint(app)×mgmicrosome/gliver×liverweight(g)/bodyweight(kg)
Where a value of 45 mg of protein per gram of liver tissue was used for both rat and human, and a liver weight of 40 and 21 g per kg were applied to rat and human, respectively ([Hosea et al., 2009]). […]

[2] = PBPK simulation in human (GastroPlus); details: optimized by comparing fitting with observed PK data
From the text: GastroPlus^TM software (version 8.5) was used to perform all simulations, (Simulations Plus, Inc., Lancaster, CA, United States). The absorption of oral formulations from the GI tract was modeled by the advanced compartmental absorption and transit (ACAT^TM) model implemented in GastroPlus ([Agoram et al., 2001]; [Kuentz et al., 2006]; [Huang et al., 2009]; [Zhang et al., 2011]). Input parameters in the ACAT model include three groups: formulation properties, physicochemical properties and pharmacokinetic parameters. […] The immediate release (IR) suspension for rat and IR capsule for human were selected for simulation of buagafuran in GastroPlus^TM. The ACAT model consists of nine compartments that mimic the GI tract. Each GI tract has an associated ASF. ASF is the multiplier used to scale the permeability to account for different surface-to-volume ratios, pH effects, transporter differences, and other factors that affect absorption between different compartments ([Zhang et al., 2011]). Four coefficients C1–C4 are used to calculate ASF. And there are eight basic ASF models in version 8.5. […]
The pharmacokinetic parameters of unbound fraction in plasma (FUp) were experimentally measured values. […]

[3] = set-up: method as in Zhang, 1997; Li et al., 2001; Li, 2010; details: human liver microsomes, ref Zhang, 1997, Li et al., 2001, 2010; cited from earlier work
P-gp = test system: P-gp; set-up: method as in Li, 2010; details: ref Li, 2010; cited from earlier work

CCCCC1=CCC[C@@]2(C)CC[C@@H]3C[C@]12OC3(C)C [buagafuran]
Caco-2 Papp (Caco-2 cells): 19.5 × 10^-5 | Papp A→B at 50 μM (Caco-2 transport study; read-out: apparent permeability coefficient (AP to BL)): 195 ×10⁻⁶ cm/s | Papp B→A at 50 μM (Caco-2 transport study; read-out: apparent permeability coefficient (BL to AP)): 438 ×10⁻⁶ cm/s | CLhep predicted ([1]; from rat liver microsomes, well-stirred model): 28.0 mL/min/kg | microsomal CLint at 2 μM ([1]; pH 7.4, rat liver microsomes 0.5 mg/mL, 2 μM, read-out: in vitro CLintapp): 33 µL/min/mg | input (refined) CLhep [2]: 11.7 mL/min/kg | extraction ratio [3]: about 50% | substrate of the transporter P-gp (P-gp): substrate of the transporter P-gp
